Measured values published in PubChem BioAssay AID248 (DTP/NCI, 2004).
Toxic doses and inconclusive results are not listed. No stated cut-off is given here; in the data, active means T/C of 150% or more; inactive means T/C below 125%.

Test system: L1210 leukemia ip in BDF1 mice, survival T/C
Assay: NCI In Vivo Anticancer Drug Screen. Data for tumor model L1210 Leukemia (intraperitoneal) in B6D2F1 (BDF1) mice
Details: endpoint: mean survival time, higher = longer survival
How it was run: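 Ratio derived from survival: compound-dosed mice over vehicle-dosed mice, all bearing a transplantable tumor.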

[1] = dose: 100.0 mg/kg/injection, schedule: Q01DX001 (ip), vehicle: saline with Tween-80
[2] = dose: 200.0 mg/kg/injection, schedule: Q01DX001 (ip), vehicle: saline with Tween-80
[3] = dose: 400.0 mg/kg/injection, schedule: Q01DX001 (ip), vehicle: saline with Tween-80
[4] = dose: 100.0 mg/kg/injection, schedule: Q01DX009 (ip), vehicle: saline
[5] = dose: 200.0 mg/kg/injection, schedule: Q01DX009 (ip), vehicle: saline
[6] = dose: 100.0 mg/kg/injection, schedule: Q01DX001 (ip), vehicle: saline

Measured: T/C

CC(=O)C(C(N)=O)C(c1ccc2c(c1)OCO2)C(C(C)=O)C(=O)NCc1ccccc1 (configuration not stated)
inactive: dose: 25.6 mg/kg/injection, schedule: Q04DX002 (ip), vehicle: saline with Tween-80 98 % of control | dose: 64.0 mg/kg/injection, schedule: Q04DX002 (ip), vehicle: saline with Tween-80 95 % of control | dose: 100.0 mg/kg/injection, schedule: Q04DX003 (ip), vehicle: saline with Tween-80 87 % of control | dose: 160.0 mg/kg/injection, schedule: Q04DX002 (ip), vehicle: saline with Tween-80 91 % of control | dose: 200.0 mg/kg/injection, schedule: Q04DX003 (ip), vehicle: saline with Tween-80 90 % of control | dose: 400.0 mg/kg/injection, schedule: Q04DX002 (ip), vehicle: saline with Tween-80 98 % of control | dose: 400.0 mg/kg/injection, schedule: Q04DX003 (ip), vehicle: saline with Tween-80 91 % of control

CC(=O)Nc1cccc(/C=C/c2nc(N)nc(N)c2-c2ccc(Cl)cc2)c1
inactive: [1] 98 % of control | [2] 87 % of control | [3] 90 % of control

CC(=O)Nc1nc[nH]c1C(N)=O
inactive: [1] 106 % of control | [2] 105 % of control | [3] 100 % of control

CN(C)C(=O)Sc1cccnc1
inactive: [4] 116 % of control | [5] 119 % of control

CCCCCCCCCCCCCCCCC1CC2CCCCC2C1 (configuration not stated)
inactive: [1] 100 % of control | [2] 93 % of control | [3] 94 % of control

CC1(C)/C(=C\C(=O)O)C2CCC1C2 (configuration not stated)
inactive: [6] 103 % of control | [4] 91 % of control | dose: 100.0 mg/kg/injection, schedule: Q04DX003 (ip), vehicle: acetone 106 % of control | dose: 200.0 mg/kg/injection, schedule: Q01DX001 (ip), vehicle: saline 97 % of control | [5] 90 % of control | dose: 200.0 mg/kg/injection, schedule: Q04DX003 (ip), vehicle: acetone 93 % of control | dose: 400.0 mg/kg/injection, schedule: Q01DX001 (ip), vehicle: saline 105 % of control | dose: 400.0 mg/kg/injection, schedule: Q01DX009 (ip), vehicle: saline 98 % of control | dose: 400.0 mg/kg/injection, schedule: Q04DX003 (ip), vehicle: acetone 89 % of control

COc1ccc(N=CN(C)C)cc1
inactive: dose: 50.0 mg/kg/injection, schedule: Q01DX001 (ip), vehicle: saline 100 % of control | [6] 96 % of control

COc1ccc(-n2c(=O)c(N=Nc3ccccc3C)c(O)n(-c3ccc(Br)cc3)c2=S)cc1
inactive: dose: 37.5 mg/kg/injection, schedule: Q01DX001 (ip), vehicle: Klucel (hydroxypropylcellulose) (HPC) 94 % of control | dose: 75.0 mg/kg/injection, schedule: Q01DX001 (ip), vehicle: Klucel (hydroxypropylcellulose) (HPC) 92 % of control | dose: 150.0 mg/kg/injection, schedule: Q01DX001 (ip), vehicle: Klucel (hydroxypropylcellulose) (HPC) 105 % of control

Nc1nc(N)c2c(n1)SCC(c1ccc(Cl)cc1)=N2
inactive: dose: 75.0 mg/kg/injection, schedule: Q01DX001 (ip), vehicle: other 101 % of control | dose: 150.0 mg/kg/injection, schedule: Q01DX001 (ip), vehicle: other 98 % of control

O=C(C(=O)c1ccco1)c1ccccc1
inactive: dose: 75.0 mg/kg/injection, schedule: Q01DX001 (ip), vehicle: carboxymethylcellulose (CMC) 100 % of control | dose: 150.0 mg/kg/injection, schedule: Q01DX001 (ip), vehicle: carboxymethylcellulose (CMC) 102 % of control | dose: 300.0 mg/kg/injection, schedule: Q01DX001 (ip), vehicle: carboxymethylcellulose (CMC) 97 % of control

Cc1cc(C2CCCCC2)c2ccccc2c1C
inactive: dose: 100.0 mg/kg/injection, schedule: Q01DX009 (ip), vehicle: saline sonified 95 % of control | dose: 100.0 mg/kg/injection, schedule: Q04DX003 (ip), vehicle: Klucel (hydroxypropylcellulose) (HPC) 103 % of control | dose: 200.0 mg/kg/injection, schedule: Q01DX009 (ip), vehicle: saline sonified 102 % of control | dose: 200.0 mg/kg/injection, schedule: Q04DX003 (ip), vehicle: Klucel (hydroxypropylcellulose) (HPC) 98 % of control | dose: 400.0 mg/kg/injection, schedule: Q01DX009 (ip), vehicle: saline sonified 99 % of control | dose: 400.0 mg/kg/injection, schedule: Q04DX003 (ip), vehicle: Klucel (hydroxypropylcellulose) (HPC) 106 % of control

CCc1ccc(/C=C/c2ccc(O)c3ncccc23)[n+](C)c1
inactive: dose: 2.0 mg/kg/injection, schedule: Q01DX015 (ip), vehicle: carboxymethylcellulose (CMC) 115 % of control | dose: 2.0 mg/kg/injection, schedule: Q03HX008 (ip), vehicle: other 94 % of control | dose: 2.0 mg/kg/injection, schedule: Q03HX016 (ip), vehicle: other 90 % of control | dose: 2.0 mg/kg/injection, schedule: Q03HX024 (ip), vehicle: other 98 % of control | dose: 4.0 mg/kg/injection, schedule: Q01DX009 (ip), vehicle: carboxymethylcellulose (CMC) 120 % of control | dose: 4.0 mg/kg/injection, schedule: Q01DX009 (ip), vehicle: other 97 % of control | dose: 4.0 mg/kg/injection, schedule: Q01DX015 (ip), vehicle: carboxymethylcellulose (CMC) 108 % of control | dose: 4.0 mg/kg/injection, schedule: Q03HX008 (ip), vehicle: other 98 % of control | dose: 4.0 mg/kg/injection, schedule: Q03HX016 (ip), vehicle: other 96 % of control | dose: 4.0 mg/kg/injection, schedule: Q03HX024 (ip), vehicle: other 97 % of control | dose: 5.0 mg/kg/injection, schedule: Q01DX001 (ip), vehicle: carboxymethylcellulose (CMC) 94 % of control | dose: 6.25 mg/kg/injection, schedule: Q01DX009 (ip), vehicle: saline 108 % of control | dose: 6.25 mg/kg/injection, schedule: Q04DX003 (ip), vehicle: saline 107 % of control | dose: 8.0 mg/kg/injection, schedule: Q01DX009 (ip), vehicle: other 106 % of control | dose: 8.0 mg/kg/injection, schedule: Q01DX015 (ip), vehicle: carboxymethylcellulose (CMC) 113 % of control | dose: 8.0 mg/kg/injection, schedule: Q03HX008 (ip), vehicle: other 104 % of control | dose: 8.0 mg/kg/injection, schedule: Q03HX016 (ip), vehicle: other 103 % of control | dose: 8.0 mg/kg/injection, schedule: Q03HX024 (ip), vehicle: other 108 % of control | dose: 10.0 mg/kg/injection, schedule: Q01DX001 (ip), vehicle: carboxymethylcellulose (CMC) 100 % of control | dose: 12.5 mg/kg/injection, schedule: Q01DX001 (ip), vehicle: saline 104 % of control | dose: 12.5 mg/kg/injection, schedule: Q01DX009 (ip), vehicle: saline 124 % of control | dose: 12.5 mg/kg/injection, schedule: Q04DX003 (ip), vehicle: saline 110 % of control | dose: 16.0 mg/kg/injection, schedule: Q01DX001 (ip), vehicle: other 107 % of control | dose: 16.0 mg/kg/injection, schedule: Q01DX009 (ip), vehicle: other 120 % of control | dose: 16.0 mg/kg/injection, schedule: Q03HX008 (ip), vehicle: other 112 % of control | dose: 16.0 mg/kg/injection, schedule: Q03HX016 (ip), vehicle: other 110 % of control | dose: 16.0 mg/kg/injection, schedule: Q03HX024 (ip), vehicle: other 122 % of control | dose: 16.0 mg/kg/injection, schedule: Q04DX003 (ip), vehicle: other 100 % of control | dose: 16.0 mg/kg/injection, schedule: Q08DX002 (ip), vehicle: other 97 % of control | dose: 20.0 mg/kg/injection, schedule: Q01DX001 (ip), vehicle: carboxymethylcellulose (CMC) 112 % of control | dose: 25.0 mg/kg/injection, schedule: Q01DX001 (ip), vehicle: saline 114 % of control | dose: 25.0 mg/kg/injection, schedule: Q01DX009 (ip), vehicle: saline 117 % of control | dose: 25.0 mg/kg/injection, schedule: Q04DX003 (ip), vehicle: saline 110 % of control | dose: 32.0 mg/kg/injection, schedule: Q01DX001 (ip), vehicle: other 102 % of control | dose: 32.0 mg/kg/injection, schedule: Q01DX009 (ip), vehicle: other 123 % of control | dose: 32.0 mg/kg/injection, schedule: Q01DX015 (ip), vehicle: carboxymethylcellulose (CMC) 121 % of control | dose: 32.0 mg/kg/injection, schedule: Q04DX003 (ip), vehicle: other 96 % of control | dose: 32.0 mg/kg/injection, schedule: Q08DX002 (ip), vehicle: other 96 % of control | dose: 40.0 mg/kg/injection, schedule: Q01DX001 (ip), vehicle: carboxymethylcellulose (CMC) 112 % of control
